According to ChEMBL document CHEMBL1140860, “Synthesis and evaluation of dihydroartemisinin and dihydroartemisitene acetal dimers showing anticancer and antiprotozoal activity” (Bioorg Med Chem, 2009):

What was measured:
U-251 = experiment: Growth inhibition of human U251 cells after 48 hrs by sulforhodamine B assay; assay type: functional; settings: U-251, 48 h
LOX IMVI = experiment: Growth inhibition of human LOXIMVI cells after 48 hrs by sulforhodamine B assay; assay type: functional
HCC 2998 = experiment: Growth inhibition of human HCC2998 cells after 48 hrs by sulforhodamine B assay; assay type: functional; settings: HCC 2998, 48 h
KM12 = experiment: Growth inhibition of human KM12 cells after 48 hrs by sulforhodamine B assay; assay type: functional; settings: KM12, 48 h
UACC-62 = experiment: Growth inhibition of human UACC62 cells after 48 hrs by sulforhodamine B assay; assay type: functional; settings: UACC-62, 48 h
A498 = experiment: Growth inhibition of human A498 cells after 48 hrs by sulforhodamine B assay; assay type: functional; settings: A498, 48 h
[1] = Selectivity index, ratio of TC50 for african green monkey (Cercopithecus aethiops) Vero cells to IC50 for chloroquine-sensitive Plasmodium falciparum D6; assay type: toxicity, cell-based
[2] = Growth inhibition of human […] cells after 48 hrs by sulforhodamine B assay; assay type: functional
COLO 205 = experiment: Growth inhibition of human COLO205 cells after 48 hrs by sulforhodamine B assay; assay type: functional; settings: COLO 205, 48 h
IGROV-1 = experiment: Growth inhibition of human IGROV1 cells after 48 hrs by sulforhodamine B assay; assay type: functional; settings: IGROV-1, 48 h
OVCAR-5 = experiment: Growth inhibition of human OVCAR5 cells after 48 hrs by sulforhodamine B assay; assay type: functional; settings: OVCAR-5, 48 h
HL-60 = experiment: Growth inhibition of human HL-60(TB) cells after 48 hrs by sulforhodamine B assay; assay type: functional; settings: HL-60, 48 h
SR = experiment: Growth inhibition of human SR cells after 48 hrs by sulforhodamine B assay; assay type: functional
NCI-H322M = experiment: Growth inhibition of human NCI-H322M cells after 48 hrs by sulforhodamine B assay; assay type: functional
HOP-92 = experiment: Growth inhibition of human HOP92 cells after 48 hrs by sulforhodamine B assay; assay type: functional; settings: HOP-92, 48 h
A549 = experiment: Growth inhibition of human A549 cells after 48 hrs by sulforhodamine B assay; assay type: functional; settings: A549, 48 h
BT-549 = experiment: Growth inhibition of human BT549 cells after 48 hrs by sulforhodamine B assay; assay type: functional; settings: BT-549, 48 h
NCI-H460 = experiment: Growth inhibition of human NCI-H460 cells after 48 hrs by sulforhodamine B assay; assay type: functional; settings: NCI-H460, 48 h
NCI-H522 = experiment: Growth inhibition of human NCI-H522 cells after 48 hrs by sulforhodamine B assay; assay type: functional; settings: NCI-H522, 48 h
K562 = experiment: Growth inhibition of human K562 cells after 48 hrs by sulforhodamine B assay; assay type: functional; settings: K562, 48 h
HCT-15 = experiment: Growth inhibition of human HCT15 cells after 48 hrs by sulforhodamine B assay; assay type: functional; settings: HCT-15, 48 h
SK-MEL-5 = experiment: Growth inhibition of human SK-MEL-5 cells after 48 hrs by sulforhodamine B assay; assay type: functional; settings: SK-MEL-5, 48 h
SNB-19 = experiment: Growth inhibition of human SNB19 cells after 48 hrs by sulforhodamine B assay; assay type: functional; settings: SNB-19, 48 h
PC-3 = experiment: Growth inhibition of human PC3 cells after 48 hrs by sulforhodamine B assay; assay type: functional; settings: PC-3, 48 h
MDA-MB-231 = experiment: Growth inhibition of human MDA-MB-231 cells after 48 hrs by sulforhodamine B assay; assay type: functional; settings: MDA-MB-231, 48 h
ACHN = experiment: Growth inhibition of human ACHN cells after 48 hrs by sulforhodamine B assay; assay type: functional
HOP-62 = experiment: Growth inhibition of human HOP62 cells after 48 hrs by sulforhodamine B assay; assay type: functional; settings: HOP-62, 48 h
HT-29 = experiment: Growth inhibition of human HT-29 cells after 48 hrs by sulforhodamine B assay; assay type: functional; settings: HT-29, 48 h
NCI-H226 = experiment: Growth inhibition of human NCI-H226 cells after 48 hrs by sulforhodamine B assay; assay type: functional; settings: NCI-H226, 48 h
EKVX = experiment: Growth inhibition of human EKVX cells after 48 hrs by sulforhodamine B assay; assay type: functional
Plasmodium falciparum [3] = experiment: Antimalarial activity after 72 hrs against chloroquine-resistant Plasmodium falciparum W2 infected erythrocytes by LDH assay; assay type: functional, organism-based; settings: W2, 72 h
SNB-75 = experiment: Growth inhibition of human SNB75 cells after 48 hrs by sulforhodamine B assay; assay type: functional; settings: SNB-75, 48 h
CCRF-CEM = experiment: Growth inhibition of human CCRF-CEM cells after 48 hrs by sulforhodamine B assay; assay type: functional
CAKI-1 = experiment: Growth inhibition of human Caki1 cells after 48 hrs by sulforhodamine B assay; assay type: functional; settings: CAKI-1, 48 h
[4] = Growth inhibition of human Hs 578T cells after 48 hrs by sulforhodamine B assay; assay type: functional
TK-10 = experiment: Growth inhibition of human TK10 cells after 48 hrs by sulforhodamine B assay; assay type: functional; settings: TK-10, 48 h
Plasmodium falciparum [5] = experiment: Antimalarial activity after 72 hrs against chloroquine-sensitive Plasmodium falciparum D6 infected in erythrocytes by LDH assay; assay type: functional, organism-based; settings: D6, 72 h
NCI-H23 = experiment: Growth inhibition of human NCI-H23 cells after 48 hrs by sulforhodamine B assay; assay type: functional; settings: NCI-H23, 48 h
NCI/ADR-RES = experiment: Growth inhibition of human NCI/ADR-RES cells after 48 hrs by sulforhodamine B assay; assay type: functional
786-0 = experiment: Growth inhibition of human 786-0 cells after 48 hrs by sulforhodamine B assay; assay type: functional; settings: 786-0, 48 h
OVCAR-3 = experiment: Growth inhibition of human OVCAR-3 cells after 48 hrs by sulforhodamine B assay; assay type: functional; settings: OVCAR-3, 48 h
UO-31 = experiment: Growth inhibition of human UO31 cells after 48 hrs by sulforhodamine B assay; assay type: functional; settings: UO-31, 48 h
MDA-MB-435 = experiment: Growth inhibition of human MDA-MB-435 cells after 48 hrs by sulforhodamine B assay; assay type: functional; settings: MDA-MB-435, 48 h
SK-MEL-28 = experiment: Growth inhibition of human SK-MEL-28 cells after 48 hrs by sulforhodamine B assay; assay type: functional; settings: SK-MEL-28, 48 h
SN12C = experiment: Growth inhibition of human SN12C cells after 48 hrs by sulforhodamine B assay; assay type: functional
M14 = experiment: Growth inhibition of human M14 cells after 48 hrs by sulforhodamine B assay; assay type: functional; settings: M14, 48 h
T47D = experiment: Growth inhibition of human T47D cells after 48 hrs by sulforhodamine B assay; assay type: functional
HCT-116 = experiment: Growth inhibition of human HCT116 cells after 48 hrs by sulforhodamine B assay; assay type: functional; settings: HCT-116, 48 h
[6] = Cytotoxicity against african green monkey Vero cells after 48 hrs by neutral red assay; assay type: cell-based; settings: chlorocebus sabaeus, read-out: TC50
MCF7 = experiment: Growth inhibition of human MCF7 cells after 48 hrs by sulforhodamine B assay; assay type: functional; settings: MCF7, 48 h
OVCAR-8 = experiment: Growth inhibition of human OVCAR8 cells after 48 hrs by sulforhodamine B assay; assay type: functional; settings: OVCAR-8, 48 h

Compound `C[C@H]1[C@H](OCCO[C@H]2O[C@@H]3O[C@@]4(C)CC[C@H]5[C@H](C)CC[C@@H]([C@H]2C)[C@@]35OO4)O[C@@H]2O[C@@]3(C)CC[C@H]4[C@H](C)CC[C@@H]1[C@@]24OO3` has a GI50 (U-251) of 0.049 µM, a GI50 (LOX IMVI) of 0.03 µM and a GI50 (HCC 2998) of 0.067 µM. For the same compound, the GI50 (KM12) was 0.033 µM, the GI50 (UACC-62) was 0.072 µM and the GI50 (A498) was 8.11 µM. The selectivity ratio [1] was > 25, the GI50 [2] was < 0.008 µM and the GI50 (COLO 205) was 0.015 µM. The GI50 (IGROV-1) was 8.28 µM, the GI50 (OVCAR-5) was 0.059 µM and the GI50 (HL-60) was 0.015 µM. For the same compound, the GI50 (SR) was 0.025 µM, the GI50 (NCI-H322M) was 7.9 µM and the GI50 (HOP-92) was 0.052 µM. It also gave a GI50 (A549) of 0.059 µM, a GI50 (BT-549) of 0.074 µM and a GI50 (NCI-H460) of 0.046 µM. It also gave a GI50 (NCI-H522) of 0.68 µM, a GI50 (K562) of 0.02 µM and a GI50 (HCT-15) of 0.017 µM. For the same compound, the GI50 (SK-MEL-5) was 0.034 µM, the GI50 (SNB-19) was 8.26 µM and the GI50 (PC-3) was 0.022 µM. It also gave a GI50 (MDA-MB-231) of 0.534 µM, a GI50 (ACHN) of 0.224 µM and a GI50 (HOP-62) of 11.6 µM. The GI50 (HT-29) was 0.038 µM, the GI50 (NCI-H226) was 9.54 µM and the GI50 (EKVX) was 0.04 µM. For the same compound, the IC50 (Plasmodium falciparum [3]) was 21.9 µM, the GI50 (SNB-75) was 0.366 µM and the GI50 (CCRF-CEM) was 0.025 µM. For the same compound, the GI50 (CAKI-1) was 0.09 µM, the GI50 [4] was 7.65 µM and the GI50 (TK-10) was 0.064 µM. For the same compound, the IC50 (Plasmodium falciparum [5]) was 31.9 µM, the GI50 (NCI-H23) was 0.036 µM and the GI50 (NCI/ADR-RES) was 0.055 µM. For the same compound, the GI50 (786-0) was 0.324 µM, the GI50 (OVCAR-3) was 1.28 µM and the GI50 (UO-31) was 0.035 µM. The GI50 (MDA-MB-435) was 0.045 µM, the GI50 (SK-MEL-28) was 0.727 µM and the GI50 (SN12C) was 0.055 µM. It also gave a GI50 (M14) of 7.6 µM, a GI50 (T47D) of 0.016 µM and a GI50 (HCT-116) of 0.03 µM. The CC50 at 48 h [6] was > 800 µM, the GI50 (MCF7) was 0.028 µM and the GI50 (OVCAR-8) was 0.034 µM.

In the case of `C[C@H]1[C@@H](OCC(=O)CO[C@H]2O[C@@H]3O[C@@]4(C)CC[C@H]5[C@H](C)CC[C@@H]([C@H]2C)[C@@]35OO4)O[C@@H]2O[C@@]3(C)CC[C@H]4[C@H](C)CC[C@@H]1[C@@]24OO3`, the GI50 (U-251) is reported as < 0.01 µM, the GI50 (LOX IMVI) is reported as < 0.01 µM and the GI50 (HCC 2998) is reported as < 0.01 µM. For the same compound, the GI50 (KM12) was < 0.01 µM, the GI50 (UACC-62) was < 0.01 µM and the GI50 (A498) was 15.4 µM. For the same compound, the selectivity ratio [1] was > 6800, the GI50 [2] was < 0.01 µM and the GI50 (COLO 205) was < 0.01 µM. For the same compound, the GI50 (IGROV-1) was 1.74 µM, the GI50 (OVCAR-5) was < 0.01 µM and the GI50 (HL-60) was < 0.01 µM. The GI50 (SR) was < 0.01 µM, the GI50 (NCI-H322M) was 8.42 µM and the GI50 (HOP-92) was 0.021 µM. For the same compound, the GI50 (A549) was < 0.01 µM, the GI50 (BT-549) was 0.29 µM and the GI50 (NCI-H460) was < 0.01 µM. For the same compound, the GI50 (NCI-H522) was 0.018 µM, the GI50 (K562) was < 0.01 µM and the GI50 (HCT-15) was < 0.01 µM. For the same compound, the GI50 (SK-MEL-5) was < 0.01 µM, the GI50 (SNB-19) was 13.3 µM and the GI50 (PC-3) was < 0.01 µM. For the same compound, the GI50 (MDA-MB-231) was 3.33 µM, the GI50 (ACHN) was 0.026 µM and the GI50 (HOP-62) was 11.9 µM. For the same compound, the GI50 (HT-29) was < 0.01 µM, the GI50 (NCI-H226) was 0.331 µM and the GI50 (EKVX) was 0.078 µM. For the same compound, the IC50 (Plasmodium falciparum [3]) was 0.3 µM, the GI50 (SNB-75) was 0.015 µM and the GI50 (CCRF-CEM) was < 0.01 µM. The GI50 (CAKI-1) was 0.077 µM, the GI50 [4] was 16.2 µM and the GI50 (TK-10) was 0.278 µM. For the same compound, the IC50 (Plasmodium falciparum [5]) was 1.1 µM, the GI50 (NCI-H23) was < 0.01 µM and the GI50 (NCI/ADR-RES) was 0.04 µM. For the same compound, the GI50 (786-0) was 0.093 µM, the GI50 (OVCAR-3) was < 0.01 µM and the GI50 (UO-31) was < 0.01 µM. The GI50 (MDA-MB-435) was 0.017 µM, the GI50 (SK-MEL-28) was 11.7 µM and the GI50 (SN12C) was < 0.01 µM. The GI50 (M14) was < 0.01 µM, the GI50 (T47D) was < 0.01 µM and the GI50 (HCT-116) was < 0.01 µM. For the same compound, the CC50 at 48 h [6] was > 7640 µM, the GI50 (MCF7) was < 0.01 µM and the GI50 (OVCAR-8) was < 0.01 µM.
